Tested on: primarily cultured cortical neurons
Assay: High-content image analysis of the effect of chemotherapy drugs on primarily cultured neurons (neuron number, synaptic puncta number, neurite length)
Conditions: cells cultured for 10 days, drug added for 24 hours, FIG. 7-9; for neurotoxicity (effect on the neuron number, the synaptic puncta number and the neurite length): MAP2/synaptophysin/Hoechst staining
Description: To analyze neural function accurately, MetaXpress 3.1 software (“MetaXpress® Image Acquisition and Analysis Software (Analysis Guide)” was used on the website ftp://ftp.meta.moleculardevices.com/pub/uic/software/MX31R13/HelpDocs/MetaXpress/MetaXpress_3_1_Analysis_Guide.pdf) to design an analysis module. An automatic analysis was performed according to the following optimal indicators (a)˜(c) for image analysis with 32 steps.
The cultured cells including neurons and glial cells were firstly separated according to the area and the fluorescence intensity of the nucleus stained by Hoechst dye together with MAP2 antibody.
After neurons stained with MAP2 were selected, the area of neuronal cell body, the length and the number of processes and branches of the neurites were calculated to verify outgrowth of the neurites.
Numbers of synaptic puncta of the neurons were calculated according to the area of the neurites labeled with fluorescence mentioned above to verify formation of the synaptic puncta of the neurons.
Cerebral cortex was obtained from 0˜1 day old B6 mice pup and meninges were removed. DMEM/F12 medium without serum was used to triturate the cortex tissue. Then, the DMEM/F12 medium without serum was refilled to 5 mL, mixed evenly with 0.5 mL trypsin, and placed at 37° C. for 5 minutes. Then the mixture with 1 mL FBS was filtered through a cell strainer. After a centrifugation at 3,000 rpm for 10 min, the supernatant was removed and precipitated cells were added to a medium required for nerve cell culture. The medium was prepared by adding B-27® Supplement, 0.5 mM L-glutamine, and 0.5% penicillin streptomycin to Neurobasal® A medium.
(2) Black multi-well microplates with clear bottom were used for nerve cell culture. Each well was coated with 70 μL poly-D-lysine or poly-L-lysine. Cells were seeded in a density of 2.8×10^4/well. After cells were cultured for 10 days, chemotherapy drugs listed in the table 1 was respectively added to react with cells for 24 hours. Then cells were fixed with 4% polyformaldehyde for 10 min and washed with PBS twice for 5 min each. Then, each well was added with 1 M glycine reacting for 10 min and wash with PBS twice for 5 min each. After cells were added with 0.05% Triton X-100 reacting for 20 min and washed with PBS twice for 5 min each, cell were blocked with 4% BSA for 1 hour and then stained with primary antibodies including anti-MAP2 antibody (MyBioSource; MBS502140) and anti-synaptophysin antibody (Abcam; ab32127) for 12-16 hours. Next, cells were washed twice with PBST (10 min each) and incubated with fluorescence-conjugated secondary antibodies including Alexa Fluor 488 (Jackson ImmunoResearch; 703-546-155) and Alexa Fluor 647 (molecular probes; A31573) and Hoechst 33258 for 1 hour. At last, cells were washed twice with PBST (10 min each) and added with PBS for further image acquisition and analysis.
(3) Fluorescence microscopy system and method mentioned in the above embodiment were used to capture images at the wavelength of DAPI, FITC, and Cy5 for image analysis of the cultured cells. The images were enlarged 200 times (200×) and saved automatically after the shooting for analysis.

SMILES	neurotoxicity (effect on the neuron number, the synaptic puncta number and the neurite length)	neurotoxicity compared with cisplatin (compared with cisplatin)
Nc1ccn([C@@H]2O[C@H](CO)[C@@H](O)C2(F)F)c(=O)n1 [Gemcitabine]	less neurotoxicity	–
N.N.O=C([O-])C1(C(=O)[O-])CCC1.[Pt+2] [carboplatin, Carboplatin]	–	less neurotoxicity
COc1cccc2c1C(=O)c1c(O)c3c(c(O)c1C2=O)C[C@@](O)(C(=O)CO)C[C@@H]3O[C@H]1C[C@H](N)[C@H](O)[C@H](C)O1 [doxorubicin, Doxorubicin]	less neurotoxicity	–
CC(=O)O[C@H]1C(=O)[C@@]2(C)[C@H]([C@H](OC(=O)c3ccccc3)[C@]3(O)C[C@H](OC(=O)[C@H](O)[C@@H](NC(=O)c4ccccc4)c4ccccc4)C(C)=C1C3(C)C)[C@]1(OC(C)=O)CO[C@@H]1C[C@@H]2O [paclitaxel, Paclitaxel]	severe neurotoxicity	–
CC[C@]1(O)C[C@H]2CN(CCc3c([nH]c4ccccc34)[C@@](C(=O)OC)(c3cc4c(cc3OC)N(C=O)[C@H]3[C@@](O)(C(=O)OC)[C@H](OC(C)=O)[C@]5(CC)C=CCN6CC[C@]43[C@@H]65)C2)C1 [vincristine, Vincristine]	severe neurotoxicity	–

Source: patent US10520493B2, “Method for assessment of neural function by establishing analysis module” (NATIONAL CHENG KUNG UNIVERSITY, priority 2015, dated 2019)
